Test results reported in US5214045A, “Amino acid containing acrylamide derivatives for ulcer prevention or treatment” (Richter Gedeon Vegyeszeti Gyar RT, priority 1989, dated 1993).

Columns and labels:
[1] = test system: gastric injuries induced by acidic alcohol; test: Assay of gastric injuries induced by acidic alcohol; assay type: in vivo; settings: female rats; for ED50: Rattus norvegicus, po, pretreatment 30 min, length of haemorrhagic lesions
Protocol: 1) Assay of gastric injuries induced by acidic alcohol
Female rats weighing about 120 to 150 g fasted for 24 hours were used in this test. Test compounds suspended with Tween 80 were given orally to the animals through an intragastric tube. After a certain period (pretreatmenttime) acidic alcohol was given through the intragastric tube at a dose or 0.5 ml per 100 g of body weight. The animals were sacrificed after 1 hour, their stomachs were removed and incised along the great curve. The length of the reddish-brown strips (haemorrhagic lesions) was measured and the mean total length per stomach was calculated. The biological activity of the test compounds was given and compared to that of the control group. the results are shown in Tables 1 and 2 below.

gastric acid secretion = test: Assay of the inhibition of gastric acid secretion by using pylorus ligature; assay type: in vivo; settings: female Wistar rats, 4 hours
Protocol: 2) Assay of the inhibition of gastric acid secretion by using pylorus ligature
[Shay et al., Gastroenterology, 5, 43-61 (1945)]
Before ligating the pylorus, the test compounds suspended with Tween were given orally at a volume of 0.5 ml per […] of body weight to female Wistar rats fasted previously for 20 hours. The animals were sacrificed 4 hours after the operation, and the amount of the acid in the stomach was measured by titration with 0.01N sodium hydroxide solution in the presence of phenolphthalein indicator. The pH value of the content of the stomach was measured by using a pH-meter (Radelkis, Type OP-211/1).

Compound	ED50 [1] [mg/kg]	% Inhibition in the amount of the acid at a dose of 25 mg/kg p.o. (pretreatment: 30 min) (gastric acid secretion) [%]	% Inhibition at a dose of 10 mg/kg p.o. (pretreatment: 30 min) [1] [%]
CCOC(=O)C[C@@H](NC(=O)/C=C/[S+]([O-])c1ccccc1)C(=O)OCC (stereo partly drawn) [A, Diethyl N-[3-phenylsulfinyl-2(E)-propenoyl]-(R)-aspartate]	2.1	30	–
CCOC(=O)C[C@@H](NC(=O)/C=C/S(=O)(=O)c1ccccc1)C(=O)OCC [B, Diethyl N-[3-phenylsulfonyl-2(E)-propenoyl]-(R)-aspartate]	3.5	–	–
O=C(/C=C/S(=O)(=O)c1ccccc1)N1CCN(c2ccccc2)CC1 [C, 1-[3-Phenylsulfonyl-2(E)-propenoyl]-4-phenyl-piperazine]	–	20	–
COC(=O)[C@H](CCSC)NC(=O)/C=C/S(=O)(=O)c1ccccc1 [D, Methyl 2(S)-[3-phenylsulfonyl-2(E)-propenoylamino]-4-methylthiobutyrate]	3.5	–	–
CCOC(=O)C[C@@H](NC(=O)/C=C/Sc1ccccc1)C(=O)OCC [E, Diethyl N-[3-phenylthio-2(E)-propenoyl]-(R)-aspartate]	–	20	20
CCOC(=O)C[C@H](NC(=O)/C=C/Sc1ccccc1)C(=O)OCC [F, Diethyl N-[3-phenylthio-2(E)-propenoyl]-(S)-aspartate]	–	20	20
NC(=O)[C@@H]1CCCN1C(=O)/C=C/S(=O)(=O)c1ccccc1 [G, 1-[3-Phenylsulfonyl-2(E)-propenoyl]-2(S)-carbamoylpyrrolidine]	4.5	30	–
CCOC(=O)CNC(=O)/C=C/S(=O)(=O)c1ccccc1 [H, Ethyl N-[3-phenylsulfonyl-2(E)-propenoyl]glycinate]	1.6	30	–
CCOC(=O)[C@H](C)NC(=O)/C=C/S(=O)(=O)c1ccccc1 [I, Ethyl N-[3-phenylsulfonyl-2(E)-propenoyl]-(S)alanate]	2.2	20	–
COC(=O)[C@@H]1CSCN1C(=O)/C=C\Sc1ccccc1 [J, Methyl N-[3-phenylthio-2(Z)-propenoyl]-(R)-thiazolidine-4-carboxylate]	–	–	20
O=C(O)C[C@@H](NC(=O)/C=C/S(=O)(=O)c1ccccc1)C(=O)O [K, Magnesium N-[3-phenylsulfonyl-2(E)-propenoyl]-(R)aspartate.4H2 O]	–	30	–
